This is an account of results in patent publication US20070093539A1, “N-hydroxy-4-(3-pheyl-5-methyl-isoxazole-4-yl)-benzenesulfonate solvates” (priority 2003, published 2007).

One assay has as its system isolated rabbit heart. Briefly: Cardiac effects on the isolated rabbit heart (Langendorff, coronary flow). Also on record: species or system New Zealand white rabbits. To be noted: 1, 3 and 10 μM, 4-4 hearts. How it is done: New Zealand white rabbits weighing 1.5-2 kg were used. The animals were exsanguinated and after thoracotomy the hearts were excised and mounted on a Langendorff-type perfusion apparatus. The hearts were perfused via the aorta with oxigenated, thermostated (37° C.) Krebs solution. A constant perfusion pressure of 80 cmH2O was applied. The test compounds were dissolved in the perfusion solution to obtain the requested concentrations.
The basic value of coronary flow was determined. Afterwards the small amount of compounds were added to perfusion liquid and the perfusion was measured for 30 minutes at every 10 minutes. Afterwards 30 minutes perfusion was performed without compound and the measure was repeated with the medium and high amount of compounds.
The effects of same concentration of valdecoxib and compound of example 1 were investigated in 4-4 hearts (1, 3 and 10 μM). Valdecoxib had no effect in either concentration. It can clearly be shown that the coronary flow was increased dose dependently. This effect is advantageous in practice of clinical therapy, because the painful arthritic and degenerative joint and bone deformations are emerged rather in old age, when diseases of the vascular system are also frequently encountered, which can conduce to disorder of vascular bed of the heart.

Assay [1] relates to carrageenan-induced foot paw edema. Briefly: Carrageenan-induced rat foot paw edema assay. Format: in vivo, male Wistar rats. To be noted: for ED30 of edema inhibition: p.o. How it is done: The edema was induced in male Wistar rats (140-150 g) by subcutaneous injection of carrageenan (50 μl of 1% suspension) into the right hind paw. The formed inflammation was measured with plethysmometer (Ugo Basile, type: 7150). The treated paw was placed into the plethysmometer (filled with 0.3% additives in 0.5% saline), the level of the inflammation was detected by the volume of the displaced solution. This volume was compared with the initial preinjection paw volume. Level of the inflammation (ml)=volume after CA treatment (ml)−volume before CA treatment (ml) The inflammation induced in treated group was compared to control group (which was given only vehicle). The sample materials and the solvent were dosed per os via gastro-sonde 1 hour before the CA treatment. The volume of the treated limb was measured at 3h and 5h after CA treatments. The change of the inflammation level was calculated as follows: [formula]

For assay [2], the system named is inflammatory mechanical allodynia induced by carrageenan. Nature of the assay: Carrageenan-induced inflammatory mechanical allodynia (von Frey). Format: in vivo, male Sprague-Dawley rats. To be noted: 30 mg/kg p.o. As for the experimental part: The-threshold of pain of the animals was measured by von Frey apparatus (IITC, type: 1601 C). […] The values were registered in the times of the pick up or raises. During each measurment the threshold was determined at least thrice and the avarage was calculated from the peak values.
Male Sprague-Dawley rats (weighing 250-300 g) were used (n=5-6/group). 100 μl of saline solution of carrageenant (CA) was injected to the middle of the paw. The stimulus threshold was measured after it, and the treatment was completed with gastro-probe per os. The effects of the materials were measured in 30, 60, 90, 120 minutes after the treatments. The effects were compared for control group treatment with vehicle (solution of 2% Tween-80).
The effect was calculated as follows: [formula] where tx=30, 60, 90, 120 min
In the acute pain model the analgesic effects of the valdecoxib and compound of example 1 were considerable with dose of 30 mg/kg p.o. once.

Assay [3] deals with carrageenan induced inflammatory hyperalgesia. Nature of the assay: Carrageenan induced inflammatory hyperalgesia (Randall-Selitto), chronic model. Format: in vivo, male SPRD rats. To be noted: 30 mg/kg p.o. As for the experimental part:
(§1) Edema was induced by injection of Carrageenan (CA) into plantar surface of right hind paw. Male SPRD rats (weighing 140-190 g) were used n=6-8/group). Then the mechanical pain threshold of the inflamed hind paw was determined with an analgesimeter ((Ugo Basile, type: 37215).
(§2) This assay monitors the decrease of the pain threshold, and the time depending changing of the pain by mechanical pain stimulus. Analgesics can increase the pain threshold of the inflamed hinds and this effect is in terms of percentage of reversal.
(§3) Untreated right hind paw was compressed with a progressively increasing pressure. The pressure was recorded (in grams) when the animal first vocalized or made a vigorous attempt to remove the paw. It was determined to baseline threshold of the untreated paw. (average: 80-110 g). After it the animals were treated with carrageenan. After the treatment the edema and the threshold were checked in a given times. […] (Average of inflammation induced pain threshold was 20-25 g, this means 65-80% decrease related to the baseline.)
(§4) The chronic phase of the inflammantion and the decreasing of the threshold were induced by higher dose of CA. Inflammation induced threshold decreasing was measured 24 hours after the CA injection (150 μl of 2% solution). ) After it the animals were treated with test compounds and valdecoxib (30-30 mg/kg p.o.). Change in the threshold was checked at 1 h, 2 h, and 3 h following drug administration. In both model used control groups were treated orally only with solvents at the time of treatments. In both protocol the effects of the test compounds were calculated in percentage reversal of mechanical hiperalgesia: [formula] • T3h: In acute model, the threshold in the control group at 3 h after the CA injection (in gram) • T24h: In chronic model, the threshold in the control group at 24 h after the CA injection (in gram) • T0h: The threshold before the CA injection (in gram) • TXh In acute model, at 3h after the CA injection • TXh=In chronic model, at 25 h, 26 h, 27 h after the CA injection

Assay [4] concerns carrageenan and kaolin induced monoarthritis. Briefly: Carrageenan and kaolin induced monoarthritis model (incapacitance test). The assay is classed as in vivo, rats. To be noted: 10 mg/kg p.o. As for the experimental part:
The Incapacitance tester is an apparatus for measure the changes of the functional parameters induced of the pain, which can register the bearing on the hind limb, the amount of the moving and the changing of the centre of gravity. Knee-joint of the right-back limb was treated with solution of 100 μl 2% carrageenan and kaolin. During 3-4 hours after the treatment arthritis was emerged in the capsular ligament of the treated limb. This inflammation still exists at 24 hours after the treatment. Because of the pain the animals coddles the treated limbs, thy weign on it less. Change of weight load is measurable with Incapacitance tester device in grams. The incapacitance was calculated as follows: [formula] Analgesic-antiinflammantory compounds could increase the stimulus threshold of the knee-joint, and consequently to improve the functional parameters of the limb. Measure of this can be counted by the decrease of the loading of left leg i.e. in terms of percentage of reversal. [formula] The Incapacitance induced by administration of irritants in left paw was measured at 4 hour after the injection. Afterwards the animals (n=24-32/group) were. orally treated with dose of 10 mg/kg valdecoxib and test compounds. Measurements were done at 1 and 2 hours after the treatments.

For assay [5], the system named is carrageenan induced inflammatory hyperalgesia. Briefly: Carrageenan induced inflammatory hyperalgesia (Randall-Selitto), acute model. Format: in vivo, male SPRD rats. To be noted: Acut model, 10 mg/kg p.o. How it is done: as §1, §2, §3
1 hour after the CA injection (100 μl of 2% solution) the animals were treated with test compounds and valdecoxib (10-10 mg/kg p.o.). […]
as §4

With `Cc1onc(-c2ccccc2)c1-c1ccc(S(N)(=O)=O)cc1` [valdecoxib, reference compound], in the assay on isolated rabbit heart, the “effect on coronary flow (in words)” value is recorded as “no effect”. Moreover, the “edema inhibition effect %” value in assay [1] (0.1 mg/kg p.o., 4 hours after treatment) stood at 29.4%; in assay [1] (0.1 mg/kg p.o., 6 hours after treatment) it was 25.8%; in assay [1] (0.3 mg/kg p.o., 4 hours after treatment), 34.1%; in assay [1] (0.3 mg/kg p.o., 6 hours after treatment), 27.3%; in assay [1] (1.0 mg/kg p.o., 4 hours after treatment), 40.1%; in assay [1] (1.0 mg/kg p.o., 6 hours after treatment), 37.8%. The “edema inhibition effect %” value was found to be 47.7% in assay [1] (3.0 mg/kg p.o., 4 hours after treatment) and 45.8% in assay [1] (3.0 mg/kg p.o., 6 hours after treatment). The figures for the “ED30 of edema inhibition” value in assay [1] (4 hours after treatment) and in assay [1] (6 hours after treatment) were 0.2 mg/kg and 0.3 mg/kg, respectively. Also, the “Analgesic effect in % after p.o. treatment” value in assay [2] (30 min.) worked out at 69.2%; in assay [2] (1 hour) it was 60.0%; in assay [2] (1.5 hour), 57.7%; in assay [2] (2 hours), 47.8%; in assay [3] (1 hour), 24.2%; in assay [3] (2 hours), 36.9%. Besides, the “Analgesic effect in % after p.o. treatment” value in assay [3] (3 hours) was 19.9%; in assay [5] (2 hours), 50.5%; in assay [5] (3 hours) it was 59.9%; in assay [5] (4 hours), 33.2%. The “Analgesic effect (% reversal) after p.o. treatment” value is 52.1 % reversal in assay [4] (1 hour) and 62.4 % reversal in assay [4] (2 hours).
